Here are results for three compounds from ChEMBL document CHEMBL5625196, “Cell-active, irreversible covalent inhibitors that selectively target the catalytic lysine of EGFR by using fluorosulfate-based SuFEx chemistry” (Eur J Med Chem, 2023).

A word on the half-life: it is the time needed for the level to fall by half in the phase considered. For orientation: AUC(0-t) means exposure summed from dosing to a finite time, without extrapolation to infinity. High values mean high exposure, low ones low exposure. A word on the AUC(0-inf): it is total exposure, with the tail of the curve extrapolated. Usually clearance stands for the rate of elimination divided by the concentration. A higher clearance goes with a high capacity for elimination. One may read the MRT as a mean duration of stay, worked out from the concentration-time curve. For orientation: Tmax means the time from dosing to the highest level. Broadly, the Cmax is the peak of the concentration-time curve. For orientation: bioavailability means the share of a dose that reaches the circulation, judged against a reference dose that is usually intravenous. Read a high bioavailability as good availability. The term Papp A→B denotes how fast a substance crosses the layer from the apical side. A higher Papp A→B goes with fast passage. Usually Papp B→A stands for how fast a substance crosses the layer from the basolateral side.

Each structure is given as a SMILES string.

Data set [1] can be described thus: physchem. The following applies: PBS.
Data set [2] is described as follows: physchem. The following applies: cell-culture medium.
Data set [3] can be described thus: AUC (0 to t) in Sprague-Dawley rat at 2 mg/kg, iv measured after 24 hrs by LC-MS/MS analysis. Type of data set: ADME, organism-based. The following applies: in vivo.
Data set [4] can be described thus: AUC (0 to infinity) in Sprague-Dawley rat at 2 mg/kg, iv measured after 24 hrs by LC-MS/MS analysis. The data set is classed as ADME, organism-based. The following applies: in vivo.
Data set [5] can be described thus: Half-life in Sprague-Dawley rat at 2 mg/kg, iv measured after 24 hrs by LC-MS/MS analysis. Type of data set: ADME, organism-based. The following applies: in vivo.
Data set [6] in a line: Apparent volume of distribution in Sprague-Dawley rat at 2 mg/kg, iv measured after 24 hrs by LC-MS/MS analysis. The following applies: in vivo, read-out: Vz. Type of data set: ADME, organism-based.
Data set [7] is described as follows: Clearance in Sprague-Dawley rat at 2 mg/kg, iv measured after 24 hrs by LC-MS/MS analysis. The following applies: in vivo. Type of data set: ADME, organism-based.
The nature of data set [8]: Volume of distribution at steady state in Sprague-Dawley rat at 2 mg/kg, iv measured after 24 hrs by LC-MS/MS analysis. Type of data set: ADME, organism-based. The following applies: in vivo, read-out: Vdss.
Data set [9] is described as follows: MRT in Sprague-Dawley rat at 2 mg/kg, iv measured after 24 hrs by LC-MS/MS analysis. Type of data set: ADME, organism-based. The following applies: in vivo.
The nature of data set [10]: AUC (0 to t) in Sprague-Dawley rat at 5 mg/kg, po measured after 24 hrs by LC-MS/MS analysis. The data set is classed as ADME, organism-based. The following applies: in vivo.
Data set [11] can be described thus: AUC (0 to infinity) in Sprague-Dawley rat at 5 mg/kg, po measured after 24 hrs by LC-MS/MS analysis. Type of data set: ADME, organism-based. The following applies: in vivo.
Data set [12] is described as follows: Half-life in Sprague-Dawley rat at 5 mg/kg, po measured after 24 hrs by LC-MS/MS analysis. Type of data set: ADME, organism-based. The following applies: in vivo.
Data set [13] can be described thus: MRT in Sprague-Dawley rat at 5 mg/kg, po measured after 24 hrs by LC-MS/MS analysis. Type of data set: ADME, organism-based. The following applies: in vivo.
Data set [14] in a line: Tmax in Sprague-Dawley rat at 5 mg/kg, po measured after 24 hrs by LC-MS/MS analysis. The following applies: in vivo. Type of data set: ADME, organism-based.
A short description of data set [15]: Cmax in Sprague-Dawley rat at 5 mg/kg, po measured after 24 hrs by LC-MS/MS analysis. Type of data set: ADME, organism-based. The following applies: in vivo.
The nature of data set [16]: Oral bioavailability in Sprague-Dawley rat at 5 mg/kg measured after 24 hrs by LC-MS/MS analysis. The data set is classed as ADME, organism-based. The following applies: in vivo.
Data set [17] can be described thus: in vitro. The following applies: mouse, mouse liver microsomes.
A short description of data set [18]: in vitro. The following applies: dog, MDCK-MDR1.
A short description of data set [19]: in vitro. The following applies: dog, MDCK-MDR1. This is another data set of the same source.
Data set [20] in a line: in vitro. The following applies: dog, MDCK-MDR1. The source holds these as a separate data set.
The nature of data set [21]: in vitro. The following applies: dog, MDCK-MDR1. The source holds these as a separate data set.
Data set [22] is described as follows: physchem. The following applies: PBS. This is another data set of the same source.
The nature of data set [23]: physchem. The following applies: PBS. The source holds these as a separate data set.
For data set [24] the following is noted: dog, mdck-mdr1, 10 µM.

Consider `C=CS(=O)(=O)Nc1cccc(Nc2ncnc3cc(OCCOC)c(OCCOC)cc23)c1`, for which the half-life in data set [1] and in [2] was above 24 h in each case.
Consider `COCCOc1cc2ncnc(Nc3cccc(OS(=O)(=O)F)c3)c2cc1OCCOC`, for which the AUC(0-t) at 24 h in [3] stood at 1920 ng·h/mL; in data set [10], 1530 ng·h/mL. The AUC(0-inf) came to 1920 ng·h/mL in data set [4] and 1540 ng·h/mL in [11]. The half-life in [5] was 0.93 h; in data set [12] it was 0.81 h; in data set [1] it was above 8 h; in data set [22], above 8 h; in data set [2] it was 24 h; in data set [23], above 12 h. The Vd in data set [6] was found to be 1.4 L/kg; in data set [8] it was 1.22 L/kg. In data set [7], this compound gave a clearance of 17.4 mL/min/kg. Also, the MRT in data set [9] was 1.16 h; in [13], 2.48 h. Also, in [14], the Tmax amounted to 2.33 h. Also, the highest level in data set [15] (Cmax) was 444 ng/mL. For the same compound, the bioavailability in data set [16] stood at 32%. This compound also registered a half-life at 1 h in [17] of 0.493 h. In addition, the recovery at 10 µM in data set [18] amounted to 86.8%; in [19] it was 81.2%. Moreover, the Papp A→B at 10 µM in [20] worked out at 1.9 ×10⁻⁶ cm/s. The compound also registered a Papp B→A at 10 µM in data set [21] of 3.92 ×10⁻⁶ cm/s.
Regarding `C[C@H]1O[C@@H](O[C@H]2[C@@H](O)C[C@H](O[C@H]3[C@@H](O)C[C@H](O[C@H]4CC[C@@]5(C)[C@H](CC[C@@H]6[C@@H]5C[C@@H](O)[C@]5(C)[C@@H](C7=CC(=O)OC7)CC[C@]65O)C4)O[C@@H]3C)O[C@@H]2C)C[C@H](O)[C@@H]1O` [DIGOXIN], the Papp in data set [24] is listed as 6.41 10^-6 cm/s. The recovery at 10 µM was found to be 105% in data set [18] and 97.9% in data set [19]. The same compound returned a Papp B→A at 10 µM in [21] of 18.5 ×10⁻⁶ cm/s.
